Measured values published in PubChem BioAssay AID330 (DTP/NCI, 2004).
“And” between values parts separate entries of the source, which are not always exact repeats. Equal values may be shown once. Toxic doses and inconclusive results are not listed. The calls were made as follows: active = survival T/C of 150% or more; inactive = T/C below 125% in these data. Peptide text beside a SMILES is read from it.

Tested on: P388 leukemia ip, CD2F1 mice, survival T/C
Experiment: NCI In Vivo Anticancer Drug Screen. Data for tumor model P388 Leukemia (intraperitoneal) in CD2F1 (CDF1) mice
Details: endpoint: median survival time, higher = longer survival
In short: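 Mice carrying the transplanted tumor received test compound or vehicle. Survival was recorded in each group, and the value is the treated-group measurement divided by that of the vehicle-treated control group.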

[1] = dose: 50.0 mg/kg/injection, schedule: Q01DX005 (ip), vehicle: saline
[2] = dose: 100.0 mg/kg/injection, schedule: Q01DX005 (ip), vehicle: saline
[3] = dose: 200.0 mg/kg/injection, schedule: Q01DX005 (ip), vehicle: saline
[4] = dose: 50.0 mg/kg/injection, schedule: Q01DX005 (ip), vehicle: saline with Tween-80
[5] = dose: 100.0 mg/kg/injection, schedule: Q01DX005 (ip), vehicle: saline with Tween-80
[6] = dose: 100.0 mg/kg/injection, schedule: Q01DX001 (ip), vehicle: saline with Tween-80
[7] = dose: 200.0 mg/kg/injection, schedule: Q01DX001 (ip), vehicle: saline with Tween-80
[8] = dose: 400.0 mg/kg/injection, schedule: Q01DX001 (ip), vehicle: saline with Tween-80
[9] = dose: 60.0 mg/kg/injection, schedule: Q01DX005 (ip), vehicle: Klucel (hydroxypropylcellulose) (HPC)
[10] = dose: 120.0 mg/kg/injection, schedule: Q01DX005 (ip), vehicle: Klucel (hydroxypropylcellulose) (HPC)
[11] = dose: 240.0 mg/kg/injection, schedule: Q01DX005 (ip), vehicle: Klucel (hydroxypropylcellulose) (HPC)
[12] = dose: 100.0 mg/kg/injection, schedule: Q01DX009 (ip), vehicle: saline with Tween-80
[13] = dose: 200.0 mg/kg/injection, schedule: Q01DX009 (ip), vehicle: saline with Tween-80
[14] = dose: 60.0 mg/kg/injection, schedule: Q01DX005 (ip), vehicle: saline with Tween-80
[15] = dose: 120.0 mg/kg/injection, schedule: Q01DX005 (ip), vehicle: saline with Tween-80
[16] = dose: 240.0 mg/kg/injection, schedule: Q01DX005 (ip), vehicle: saline with Tween-80

Measured: T/C

CC(=O)NC1C(Nc2ccc(S(=O)(=O)Nc3nccc(C)n3)cc2)OC(CO)C(O)C1O (centres undefined)
inactive: [1] 100 % of control | [2] 105 % of control | [3] 92 % of control

COc1ccc(-c2c[s+]cs2)cc1
inactive: dose: 6.25 mg/kg/injection, schedule: Q01DX009 (ip), vehicle: distilled water + Tween-80 103 % of control | dose: 12.5 mg/kg/injection, schedule: Q01DX009 (ip), vehicle: distilled water + Tween-80 112 % of control | dose: 25.0 mg/kg/injection, schedule: Q01DX009 (ip), vehicle: distilled water + Tween-80 100 % of control | dose: 50.0 mg/kg/injection, schedule: Q01DX009 (ip), vehicle: distilled water + Tween-80 116 % of control | dose: 100.0 mg/kg/injection, schedule: Q01DX009 (ip), vehicle: distilled water + Tween-80 109 % of control | dose: 200.0 mg/kg/injection, schedule: Q01DX009 (ip), vehicle: distilled water + Tween-80 93 % of control

O=C(CCS(=O)O)c1ccccc1
inactive: dose: 100.0 mg/kg/injection, schedule: Q04DX002 (ip), vehicle: saline 101 % of control | dose: 200.0 mg/kg/injection, schedule: Q04DX002 (ip), vehicle: saline 100 % of control | dose: 400.0 mg/kg/injection, schedule: Q04DX002 (ip), vehicle: saline 94 % of control

COC(=O)CC1(C(=O)OC)c2sc(C(C)C)cc2N2CCCC21 (centres undefined)
inactive: dose: 10.0 mg/kg/injection, schedule: Q01DX009 (ip), vehicle: Klucel (hydroxypropylcellulose) (HPC) 97 % of control | dose: 20.0 mg/kg/injection, schedule: Q01DX009 (ip), vehicle: Klucel (hydroxypropylcellulose) (HPC) 93 % of control | dose: 40.0 mg/kg/injection, schedule: Q01DX009 (ip), vehicle: Klucel (hydroxypropylcellulose) (HPC) 93 % of control | dose: 80.0 mg/kg/injection, schedule: Q01DX009 (ip), vehicle: Klucel (hydroxypropylcellulose) (HPC) 91 % of control

Nc1nc2c(nnn2C2OC(CO)C(O)C2O)c(=O)[nH]1 (centres undefined)
inactive: [4] 113 % of control | [5] 101 % of control

O=C(Nc1ccccc1)ON=C(c1ccccc1)c1ccccc1
inactive: [6] 97 % of control | [7] 93 % of control | [8] 112 % of control

Cc1ccc(NC(=O)OCCN(C)C(=O)Nc2ccc(C)cc2C)c(C)c1
inactive: dose: 30.0 mg/kg/injection, schedule: Q01DX005 (ip), vehicle: Klucel (hydroxypropylcellulose) (HPC) 98 % of control | [9] 103 % of control and 94 % of control | [10] 98 % of control | [11] 86 % of control

COc1ccc(/C=C(/C#N)c2ccccc2)cc1
inactive: dose: 100.0 mg/kg/injection, schedule: Q04DX003 (ip), vehicle: other 100 % of control | dose: 200.0 mg/kg/injection, schedule: Q04DX003 (ip), vehicle: other 100 % of control | dose: 400.0 mg/kg/injection, schedule: Q04DX003 (ip), vehicle: other 104 % of control

N#CC(c1ccccc1)C(CC(=O)c1ccccc1)c1ccccc1 (centres undefined)
inactive: [12] 86 % of control | [13] 95 % of control | dose: 400.0 mg/kg/injection, schedule: Q01DX009 (ip), vehicle: saline with Tween-80 95 % of control

Cc1c2cc[n+](C)c(C)c2cc2c1[nH]c1ccccc12
inactive: dose: 1.56 mg/kg/injection, schedule: Q04DX002 (ip), vehicle: water 100 % of control | dose: 3.12 mg/kg/injection, schedule: Q04DX002 (ip), vehicle: water 115 % of control | dose: 6.25 mg/kg/injection, schedule: Q04DX002 (ip), vehicle: water 117 % of control | dose: 10.0 mg/kg/injection, schedule: Q04DX002 (ip), vehicle: water 115 % of control | dose: 12.5 mg/kg/injection, schedule: Q04DX002 (ip), vehicle: water 118 % of control | dose: 20.0 mg/kg/injection, schedule: Q04DX002 (ip), vehicle: water 115 % of control | dose: 25.0 mg/kg/injection, schedule: Q04DX002 (ip), vehicle: water 115 % of control | dose: 40.0 mg/kg/injection, schedule: Q04DX002 (ip), vehicle: water 115 % of control | dose: 50.0 mg/kg/injection, schedule: Q04DX002 (ip), vehicle: water 106 % of control

C=C(/C=C/CCCC)NC(=O)OCc1ccccc1
inactive: [14] 97 % of control | [15] 96 % of control | [16] 104 % of control

COC(=O)C1(C)CC2C(C)(CCC3(C)C4=CC=C5C(=CC(=O)C(O)=C5C)C4(C)CCC23C)CC1O (centres undefined)
inactive: dose: 6.25 mg/kg/injection, schedule: Q01DX001 (ip), vehicle: saline with Tween-80 100 % of control | dose: 12.5 mg/kg/injection, schedule: Q01DX001 (ip), vehicle: saline with Tween-80 99 % of control | dose: 25.0 mg/kg/injection, schedule: Q01DX001 (ip), vehicle: saline with Tween-80 99 % of control | [6] 100 % of control

CCOc1cccc(C=N)c1O
inactive: [14] 111 % of control | [15] 105 % of control

C[N+](C)(C)CCNP(=O)(Oc1ccccc1)c1ccccc1 (centres undefined)
inactive: [4] 103 % of control | [5] 94 % of control

Clc1ccc(-c2cc3cc4c(cc3[nH]2)Sc2ccccc2O4)cc1
inactive: dose: 100.0 mg/kg/injection, schedule: Q04DX003 (ip), vehicle: saline 86 % of control | dose: 200.0 mg/kg/injection, schedule: Q04DX003 (ip), vehicle: saline 86 % of control | dose: 400.0 mg/kg/injection, schedule: Q04DX003 (ip), vehicle: saline 98 % of control

O=S(=O)(c1ccc(NC(=S)NCc2cccnc2)cc1)N1CCCCC1
inactive: dose: 50.0 mg/kg/injection, schedule: Q01DX009 (ip), vehicle: Klucel (hydroxypropylcellulose) (HPC) 92 % of control | dose: 100.0 mg/kg/injection, schedule: Q01DX009 (ip), vehicle: Klucel (hydroxypropylcellulose) (HPC) 93 % of control | dose: 200.0 mg/kg/injection, schedule: Q01DX009 (ip), vehicle: Klucel (hydroxypropylcellulose) (HPC) 95 % of control

Cc1ccc(C(=O)C[n+]2ccccc2)c(O)c1
inactive: [14] 98 % of control | [15] 100 % of control

O=C(O)c1cccc(C(=O)O)c1I
inactive: dose: 100.0 mg/kg/injection, schedule: Q01DX001 (ip), vehicle: other 103 % of control | dose: 200.0 mg/kg/injection, schedule: Q01DX001 (ip), vehicle: other 96 % of control | dose: 400.0 mg/kg/injection, schedule: Q01DX001 (ip), vehicle: other 89 % of control

NC(=NCCSCc1ccccc1)NCCc1cnc[nH]1
inactive: [6] 102 % of control | [7] 102 % of control | [8] 98 % of control

Nc1nc(N)nc(Cc2ccccc2)n1
inactive: dose: 50.0 mg/kg/injection, schedule: Q01DX009 (ip), vehicle: saline with Tween-80 104 % of control | [12] 93 % of control | [13] 95 % of control

O=C(N/N=C/c1cc(Cl)cc(Cl)c1[O-])c1ccccc1.O=C(N/N=C/c1cc(Cl)cc(Cl)c1[O-])c1ccccc1.[Mn+2]
inactive: [6] 98 % of control | [7] 99 % of control | [8] 105 % of control

COC(=O)C1(C(=O)OC)O[C@@H](c2ccccc2)[C@H]2C(=O)N(C)C(=O)[C@H]21
inactive: [9] 99 % of control | [10] 101 % of control | [11] 110 % of control

CCCOC(=O)c1ccccc1OP(=O)(N(C)C)N(C)C
inactive: [1] 93 % of control | [2] 98 % of control | [3] 108 % of control

COC(=O)C1C(NC(C)(C)C)CCN1C(C)=O (centres undefined)
inactive: [1] 89 % of control | [2] 88 % of control | [3] 89 % of control

CC(C)CC(NC(=O)C(NC(=O)C(N)C(C)O)C(C)C)C(=O)O (stereo not drawn) (H-Thr-Val-Leu-OH; configuration not given here)
inactive: dose: 50.0 mg/kg/injection, schedule: Q01DX005 (ip), vehicle: Klucel (hydroxypropylcellulose) (HPC) 95 % of control | dose: 100.0 mg/kg/injection, schedule: Q01DX005 (ip), vehicle: Klucel (hydroxypropylcellulose) (HPC) 101 % of control | dose: 200.0 mg/kg/injection, schedule: Q01DX005 (ip), vehicle: Klucel (hydroxypropylcellulose) (HPC) 104 % of control

CN1C(=O)NC2(C1=O)C(=O)N(C)C(=O)N2C (centres undefined)
inactive: dose: 50.0 mg/kg/injection, schedule: Q01DX009 (ip), vehicle: saline 91 % of control | dose: 100.0 mg/kg/injection, schedule: Q01DX009 (ip), vehicle: saline 92 % of control | dose: 200.0 mg/kg/injection, schedule: Q01DX009 (ip), vehicle: saline 95 % of control

CC1=NS(=O)(=O)NC(C)=C1CC1=C(C)NS(=O)(=O)N=C1C
inactive: [14] 99 % of control | [15] 107 % of control | [16] 106 % of control
